Data set [1] is described as follows: Cytotoxicity in Huh7 cells. It counts as cell-based. The note with it: human.
The nature of data set [2]: Cytotoxicity in PBM cells. Type of data set: cell-based. The note with it: human. How it is done: (§1) The toxicity of the compounds was assessed in Vero, human PBM, CEM (human lymphoblastoid), MT-2, and HepG2 cells, as described previously (see Schinazi R. F., Sommadossi J.-P., Saalmann V., Cannon D. L., Xie M.-Y., Hart G. C., Smith G. A. & Hahn E. F. Antimicrob. Agents Chemother. 1990, 34, 1061-67). Cycloheximide was included as positive cytotoxic control, and untreated cells exposed to solvent were included as negative controls. The cytotoxicity IC50 or CC50 was obtained from the concentration-response curve using the median effective method described previously (see Chou T.-C. & Talalay P. Adv. Enzyme Regul. 1984, 22, 27-55; Belen'kii M. S. & Schinazi R. F. Antiviral Res. 1994, 25, 1-11).

The nature of data set [3]: Cytotoxicity in Vero cells. The note with it: African green monkey, Vero cells (kidney).
In data set [4] the test system is SARS-CoV-2. As to the kind of experiment: Anti-SARS-CoV-2 activity (Calu3). Type of data set: cell-based.
Data set [5] relates to SARS-CoV-2. As to the kind of experiment: Anti-SARS-CoV-2 activity (Vero). It counts as cell-based. The settings on record: Severe acute respiratory syndrome coronavirus 2, MOI 0.1, 48 hr.
The subject of data set [6] is SARS-CoV-2. As to the kind of experiment: Anti-SARS-CoV-2 activity, 3D primary culture (HAE-ALI). It counts as cell-based. The note with it: Severe acute respiratory syndrome coronavirus 2, air-liquid interface.
Data set [7] deals with Omicron. Briefly: microbe, parasite or virus in culture. The note with it: for EC90: Severe acute respiratory syndrome coronavirus 2, Caco-2, read-out: Anti-Omicron Activity (Caco-2) EC90.
The test system of data set [8] is SARS-CoV-2. Briefly: Anti-SARS-CoV-2 activity (Caco2). The note with it: Severe acute respiratory syndrome coronavirus 2, Caco-2, 72 h; for EC50: read-out: Anti-SARS-CoV-2 Activity (Caco2) EC50.
The nature of data set [9]: in vitro. The note with it: human, Caco-2.
Data set [10] deals with Omicron. As to the kind of experiment: Anti-Omicron activity (Calu-3). Type of data set: cell-based, SARS-CoV-2.
In a further data set the test system is HepG2 cells. Briefly: Mitochondrial toxicity in HepG2 cells (MtDNA / rDNA). The settings on record: Homo sapiens.
The subject of data set [11] is rDNA (rRNA gene, nuclear reference). The data set is described as above. The settings on record: human, HepG2 cells.
In data set [12] the test system is mitochondrial DNA (COXII gene). The data set is described as above. The note with it: human, HepG2 cells.
A short description of data set [13]: in vitro. The note with it: human.
Data set [14] relates to SARS-CoV-2. Briefly: Anti-SARS-CoV-2 activity, 3D primary culture (Organoids). Type of data set: cell-based.
Data set [15] is described as follows: Cytotoxicity in CEM cells. It counts as cell-based. The settings on record: human, CEM lymphoblastoid cells. How it is done: as §1
A further data set has as its system HCoV-OC43. As to the kind of experiment: Anti-HCoV-OC43 activity. Type of data set: cell-based.
Setting [16] is: Severe acute respiratory syndrome coronavirus 2, Calu-3, Calu3, MOI 1.0, 72 hr.
[17] abbreviates: Severe acute respiratory syndrome coronavirus 2, Caco-2, read-out: Anti-Omicron Activity (Caco-2) EC50.
[18] abbreviates: Severe acute respiratory syndrome coronavirus 2, Omicron, Calu-3, read-out: Anti-Omicron Activity (Calu-3) EC50.
The mark [19] stands for this setting: Severe acute respiratory syndrome coronavirus 2, Omicron, Calu-3, read-out: Anti-Omicron Activity (Calu-3) EC90.

Read-outs that look alike come from different tables or passages of the source.

Consider `O=c1nc(NO)ccn1[C@@H]1S[C@H](CO)C(O)C1O` (stereo in doubt) [Compound 17, 1-((2R,3S,4R,5R)-3,4-dihydroxy-5-(hydroxymethyl)-tetrahydrothiophen-2-yl)-4-(hydroxyamino) pyrimidin-2(1H)-one], for which the CC50 in [1], in data set [2] and in data set [3] was above 100 µM in each case. Also, the EC50 with SARS-CoV-2 [4] (setting [16]) and with SARS-CoV-2 [5] was below 10 µM in each case.
Regarding `O=c1ccn([C@@H]2S[C@H](CO)[C@@H](O)[C@H]2O)c(=O)[nH]1` [Compound 8, 1-((2R,3R,4S,5R)-3,4-dihydroxy-5-(hydroxymethyl)tetrahydrothiophen-2-yl)pyrimidine-2,4(1H,3H)-dione], the CC50 in data set [1] was above 100 µM; in data set [2] it was above 100 µM; in “in vitro [9]”, above 100 µM; in data set [3], 68.3 µM; in “in vitro [13]”, above 100 µM; in [15], 20.5 µM. Also, the EC50 (commonly the concentration giving half of the maximal effect) with SARS-CoV-2 [6] is 0.04 µM; with Omicron [7] (setting [17]) it was 8.2 µM; with SARS-CoV-2 [8] it was 1.1 µM; in the data set with Omicron [10] (Severe acute respiratory syndrome coronavirus 2, Calu-3, read-out: Anti-Omicron Activity (Calu-3) EC50), 0.9 to 1.3 µM; in the data set with SARS-CoV-2 [14] (Severe acute respiratory syndrome coronavirus 2, 3D primary culture, organoids, read-out: Anti-SARS-CoV-2 Activity (Organoids) EC50) it was 0.7 µM; in the data set on SARS-CoV-2 [5] it was 0.4 µM. The EC50 in the data set with HCoV-OC43 (Betacoronavirus 1, OC43, read-out: Anti-HCoV-OC43 Activity EC50) was 2.2 to 2.5 µM. Moreover, the EC90 (usually the concentration at which the effect reaches the 90% level) is 0.1 µM in the data set on SARS-CoV-2 [6]; above 10 µM with Omicron [7]; 2.7 to 4.4 µM with Omicron [10] (Severe acute respiratory syndrome coronavirus 2, Calu-3, read-out: Anti-Omicron Activity (Calu-3) EC90); 3.5 µM with SARS-CoV-2 [4] (setting [16]); 0.8 µM with SARS-CoV-2 [5]; 6.1 to 7.3 µM with HCoV-OC43 (Betacoronavirus 1, OC43, read-out: Anti-HCoV-OC43 Activity EC90). Also, the inhibition (as a rule, the change of the read-out against control, counted positive when it falls) at 100 µM with HepG2 cells (HepG2, read-out: inhibition of MtDNA at 100 μM) was below 1%; in the data set on HepG2 cells (HepG2, read-out: inhibition of rDNA at 100 μM) it was 36.3%. The CC50 at 7 days in data set [11] and in [12] was above 100 µM in each case.
In the case of `Nc1ccn([C@@H]2S[C@H](CO)[C@@H](O)[C@H]2O)c(=O)n1` [Compound 9, 4-amino-1-((2R,3R,4S,5R)-3,4-dihydroxy-5-(hydroxymethyl)tetrahydrothiophen-2-yl)pyrimidin-2(1H)-one], the CC50 in [1] is 93.1 µM; in data set [2] it was above 100 µM; in data set [3] it was 71.8 µM; in data set [15], 28 µM. For the same molecule, the EC50 came out at 4.9 µM in the data set on SARS-CoV-2 [8], 1.9 µM in the data set with SARS-CoV-2 [4] (setting [16]) and 0.2 µM with SARS-CoV-2 [5]. The EC90 with SARS-CoV-2 [8] (read-out: Anti-SARS-CoV-2 Activity (Caco2) EC90) was above 10 µM; in the data set with SARS-CoV-2 [4] (setting [16]), 3.9 µM; with SARS-CoV-2 [5], 4.5 µM.
On to `CC(C)OC(=O)[C@H](C)N[P@](=O)(OC[C@H]1S[C@@H](n2ccc(=O)[nH]c2=O)[C@H](O)[C@@H]1O)Oc1ccccc1` [Compound 13, Isopropyl ((S)-(((2R,3S,4R,5R)-5-(2,4-dioxo-3,4-dihydropyrimidin-1(2H)-yl)-3,4-dihydroxytetrahydrothiophen-2-yl)methoxy)(phenoxy)phosphoryl)-L-alaninate], for which the CC50 in [1], in [2], in [3] and in data set [15] was above 100 µM throughout. Moreover, the EC50 in the data set with SARS-CoV-2 [5] is above 10 µM.
`CC(C)OC(=O)[C@H](C)N[P@](=O)(OC[C@H]1S[C@@H](n2ccc(N)nc2=O)[C@H](O)[C@@H]1O)Oc1ccccc1` [Compound 16, Isopropyl ((S)-(((2R,3S,4R,5R)-5-(4-amino-2-oxopyrimidin-1(2H)-yl)-3,4-dihydroxytetrahydrothiophen-2-yl)methoxy)(phenoxy)phosphoryl)-L-alaninate]: the CC50 in data set [1], in data set [2], in data set [3] and in data set [15] was above 100 µM throughout. This molecule also yielded an EC50 with SARS-CoV-2 [5] above 10 µM.
For `O=c1nc(NO)ccn1[C@@H]1O[C@H](CO)[C@@H](O)[C@H]1O` [NHC, N4-hydroxycytidine], the EC50 with Omicron [7] (setting [17]) is above 10 µM; in the data set with Omicron [7] (Severe acute respiratory syndrome coronavirus 2, Caco-2, read-out: Anti-Omicron Activity (Caco-2) EC50, value in parentheses), 13.3 µM; in the data set on Omicron [10] (setting [18]), 0.4 µM. For the same molecule, the EC90 with Omicron [10] (setting [19]) was 1.2 µM. Also, the CC50 in [3] was found to be 16.5 µM; in data set [15] it was 2.6 µM.
In the case of `CCC(CC)COC(=O)[C@H](C)N[P@](=O)(OC[C@H]1O[C@@](C#N)(c2ccc3c(N)ncnn23)[C@H](O)[C@@H]1O)Oc1ccccc1` [Remdesivir, reference compound], the CC50 in data set [1] stood at 1.5 µM; in data set [2] it was 6.4 µM; in data set [15], 12 µM. Also, the EC50 was 0.6 µM in the data set on SARS-CoV-2 [6]; 0.05 µM with Omicron [7] (setting [17]); 0.2 to 0.3 µM with Omicron [10] (setting [18]); 0.7 µM with SARS-CoV-2 [14] (Severe acute respiratory syndrome coronavirus 2, read-out: Anti-SARS-CoV-2 Activity (Organoids) EC50); 0.1 µM in the data set with SARS-CoV-2 [4] (Severe acute respiratory syndrome coronavirus 2, Calu-3, 72 h); 0.007 to 0.03 µM with HCoV-OC43 (Betacoronavirus 1, OC43; read-out: Anti-HCoV-OC43 Activity EC50). The EC90 was 0.4 µM in the data set on Omicron [7]; 0.6 to 0.7 µM in the data set on Omicron [10] (setting [19]); 1.5 µM in the data set on SARS-CoV-2 [14] (Severe acute respiratory syndrome coronavirus 2, 3D primary culture, organoids); 0.03 to 0.08 µM with HCoV-OC43 (Betacoronavirus 1, OC43; read-out: Anti-HCoV-OC43 Activity EC90).
As for `C[C@@H]1C[C@@H]([C@H](O)CC2CC(=O)NC(=O)C2)C(=O)[C@@H](C)C1` [cyclohexamide, Cycloheximide, reference compound], the CC50 in “in vitro [9]” and in the data set “in vitro [13]” was 10 µM each time.

The record behind these values is patent US20240216413A1, “THIONUCLEOSIDES AS ANTIVIRAL AGENTS” (priority 2021, published 2024).
